Reference: article PMC7827382, “Sterols and Triterpenes from Dobera glabra Growing in Saudi Arabia and Their Cytotoxic Activity” (Plants, 2021)
In brackets after ≈: the same amount, converted by molar mass. Entries after “also recorded” stand apart in the source; their conditions may differ. Where two headings read alike, the source gives them in different places.

Columns and labels:
[1] = tested on: colorectal cancer cell (HCT-116); test: Cytotoxic activity, MTT assay, HCT-116; assay type: cell-based, human; details: for IC50: Homo sapiens, HCT-116, 48 h, read-out: HCT-116 IC50
[2] = tested on: prostate carcinoma cells (PC-3); test: Cytotoxic activity, MTT assay, PC-3; assay type: cell-based, human; details: for IC50: Homo sapiens, 48 h, read-out: PC-3 IC50
[3] = tested on: hepatocellular carcinoma cells (HepG-2); test: Cytotoxic activity, MTT assay, HepG-2; assay type: cell-based, human; details: for IC50: Homo sapiens, HepG2, 48 h, read-out: HepG-2 IC50
[4] = tested on: African green monkey kidney cell line (Vero-B); test: Cytotoxic activity, MTT assay, normal Vero-B cells; assay type: cell-based; details: for IC50: Chlorocebus sabaeus, Vero B, read-out: VERO-B IC50
[5] = tested on: HCT-116, PC-3, and HepG-2; test: Antitumor activity against cancer cell lines, summary in words; assay type: cell-based, human; details: HCT-116, PC-3 and HepG-2 cell lines
Vero cell line = test: Wound-healing assay; assay type: cell-based, African green monkey; details: 35 or 70 µM; up to 48 h
phosphodiesterase I = phosphodiesterase I (Crotalus adamanteus, UniProt J3SEZ3); test: biochemical; design: species or system snake
[6] = MTT, 48 h incubation, ± SD of three experiments
[7] = normal cells, MTT, 48 h incubation, ± SD of three experiments

phosphodiesterase I, sequence (J3SEZ3 24-851 limits assumed): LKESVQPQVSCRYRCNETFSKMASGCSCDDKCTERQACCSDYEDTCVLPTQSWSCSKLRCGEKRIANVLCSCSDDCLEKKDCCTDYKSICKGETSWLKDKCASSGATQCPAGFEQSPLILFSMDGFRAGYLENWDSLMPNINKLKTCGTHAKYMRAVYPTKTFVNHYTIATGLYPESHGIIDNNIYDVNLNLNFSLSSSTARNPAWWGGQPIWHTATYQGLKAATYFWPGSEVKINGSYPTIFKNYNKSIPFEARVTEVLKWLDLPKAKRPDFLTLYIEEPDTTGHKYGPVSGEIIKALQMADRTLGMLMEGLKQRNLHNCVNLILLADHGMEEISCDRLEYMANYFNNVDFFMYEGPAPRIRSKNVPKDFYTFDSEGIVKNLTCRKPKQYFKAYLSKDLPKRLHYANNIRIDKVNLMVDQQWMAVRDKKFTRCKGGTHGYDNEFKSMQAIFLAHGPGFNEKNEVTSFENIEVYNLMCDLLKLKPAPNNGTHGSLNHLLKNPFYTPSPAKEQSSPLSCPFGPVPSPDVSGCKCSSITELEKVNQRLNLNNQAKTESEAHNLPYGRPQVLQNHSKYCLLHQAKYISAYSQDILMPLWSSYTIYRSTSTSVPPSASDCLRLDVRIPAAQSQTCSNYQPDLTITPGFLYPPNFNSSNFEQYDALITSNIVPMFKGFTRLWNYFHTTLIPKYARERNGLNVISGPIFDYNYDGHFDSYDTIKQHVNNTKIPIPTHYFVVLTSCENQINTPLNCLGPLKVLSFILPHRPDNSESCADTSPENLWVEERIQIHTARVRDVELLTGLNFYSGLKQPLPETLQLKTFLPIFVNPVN

| Structure (SMILES) | IC50 [1, 6] | IC50 [2, 6] | IC50 [3, 6] | IC50 [4, 7] | further results |
| --- | --- | --- | --- | --- | --- |
| N.N.[Cl][Pt][Cl] [Cisplatin, cis-diamineplatinum (II) dichloride, reference compound] | – | – | – | – | HCT-116 IC50 [1, 6]: 12.6 ± 2 µg/mL; PC-3 IC50 [2, 6]: 5 ± 0.45 µg/mL; HepG-2 IC50 [3, 6]: 5 ± 1.5 µg/mL; VERO-B IC50 [4, 7]: 11 ± 1.3 µg/mL |
| C=C(C)[C@@H]1CC[C@]2(C)CC[C@]3(C)[C@H](CC[C@@H]4[C@@]5(C)CC[C@H](O)C(C)(C)[C@@H]5CC[C@]43C)[C@@H]12 [Compound 1, lupeol] | > 100 µg/mL | > 100 µg/mL | > 100 µg/mL | > 100 µg/mL | – |
| CC(=O)[C@@H]1CC[C@]2(C)CC[C@]3(C)[C@H](CC[C@@H]4[C@@]5(C)CC[C@H](O)C(C)(C)[C@@H]5CC[C@]43C)[C@@H]12 [Compound 2, 30-norlup-3β-ol-20-one] | > 100 µg/mL | > 100 µg/mL | > 100 µg/mL | > 100 µg/mL | – |
| C=C(C)[C@@H]1CC[C@]2(C)CC[C@]3(C)[C@@H](CC[C@@H]4[C@@]5(C)C=CC(=O)C(C)(C)[C@@H]5CC[C@]43C)[C@@H]12 [Compound 3, ∆^1-lupenone] | > 100 µg/mL | > 100 µg/mL | > 100 µg/mL | > 100 µg/mL | – |
| C=C(CO)[C@@H]1CC[C@]2(C)CC[C@]3(C)[C@H](CC[C@@H]4[C@@]5(C)CC[C@H](O)C(C)(C)[C@@H]5CC[C@]43C)[C@@H]12 [Compound 4, lup-20(29)-ene-3β,30-diol] | > 100 µg/mL | > 100 µg/mL | > 100 µg/mL | > 100 µg/mL | – |
| C=C(C)[C@@H]1CC[C@]2(C)CC[C@]3(C)[C@H](CC[C@@H]4[C@@]5(C)CCC(OC(=O)/C=C/c6ccc(O)c(O)c6)C(C)(C)[C@@H]5CC[C@]43C)[C@@H]12 (some centres unmarked) [Compound 5, lupeol caffeate] | 59 ± 0.45 µg/mL (≈ 100 µM) | 59 ± 0.45 µg/mL (≈ 100 µM) | 59 ± 0.45 µg/mL (≈ 100 µM) | 81 ± 1.1 µg/mL (≈ 138 µM) | – |
| C=C(CO)[C@@H]1CC[C@]2(C)CC[C@]3(C)[C@H](CC[C@@H]4[C@@]5(C)CCC(OC(=O)/C=C/c6ccc(O)c(O)c6)C(C)(C)[C@@H]5CC[C@]43C)[C@@H]12 (stereo partly drawn) [Compound 6, 30-hydroxy lup-20(29)-ene 3β-caffeate] | 68 ± 1.72 µg/mL (≈ 112 µM) | 68 ± 1.72 µg/mL (≈ 112 µM) | 68 ± 1.72 µg/mL (≈ 112 µM) | 68 ± 0.3 µg/mL (≈ 112 µM) | – |
| C=C(C=O)C1CCC2(C)CCC3(C)C(CCC4C5(C)CCC(OC(=O)C=Cc6ccc(O)c(O)c6)C(C)(C)C5CCC43C)C12 (stereo not drawn) [Compound 7, lup-20(29)-ene 3β-caffeate-30-al] | 62 ± 1.42 µg/mL (≈ 103 µM) | 62 ± 1.42 µg/mL (≈ 103 µM) | 62 ± 1.42 µg/mL (≈ 103 µM) | > 100 µg/mL | – |
| CC[C@H](CC[C@@H](C)[C@H]1CC[C@H]2[C@@H]3CC=C4C[C@@H](O)CC[C@]4(C)[C@H]3CC[C@]12C)C(C)C [Compound 9, β-sitosterol] | – | – | – | – | IC50 [1]: > 100 µg/mL; IC50 [2]: > 100 µg/mL; IC50 [3]: > 100 µg/mL; IC50 ([4]; 48 h): > 100 µg/mL; antitumor activity (in words) [5]: no activity |
| CC[C@H](CC[C@@H](C)C1CCC2C3C(O)C=C4C[C@@H](O)CC[C@]4(C)C3CC[C@@]21C)C(C)C (stereo partly drawn) [Compound 11, 7α-hydroxy-β-sitosterol] | ~8 µg/mL (≈ 18.6 µM) | ~8 µg/mL (≈ 18.6 µM) | ~8 µg/mL (≈ 18.6 µM) | 70 ± 0.5 µg/mL (≈ 163 µM) | wound healing of normal cells (Vero cell line): able to heal the wound at a rate closer to that observed for untreated cells; also recorded: wound size decreased; inhibition at 2 µM (phosphodiesterase I; read-out: phosphodiesterase I enzyme inhibition): 80.2%; antitumor activity (in words) [5]: broad-spectrum activity |
| CC[C@H](CC[C@@H](C)C1CCC2C3C(=O)C=C4C[C@@H](O)CC[C@]4(C)C3CC[C@@]21C)C(C)C (stereo partly drawn) [Compound 13, 7-keto-β-sitosterol] | 22.3 ± 0.24 µg/mL (≈ 52 µM) | 22.3 ± 0.24 µg/mL (≈ 52 µM) | 22.3 ± 0.24 µg/mL (≈ 52 µM) | 64 ± 1.1 µg/mL (≈ 149 µM) | antitumor activity (in words) [5]: moderate activity |
| O=C(O)CN(CCN(CC(=O)O)CC(=O)O)CC(=O)O [EDTA, reference compound] | – | – | – | – | IC50 (phosphodiesterase I; positive control, read-out: IC50 ± SD, phosphodiesterase I): 274 ± 0.007 µM |
